Test results reported in US20220402903A1, “ISOXAZOLINE COMPOUND WITH OPTICAL ACTIVITY AND USE” (SHENYANG SINOCHEM AGROCHEMICALS R&D CO., LTD., priority 2019, published 2022).

Tests used:
Experiment in all cases: Greenhouse herbicidal activity, post-emergence stem and leaf spray
Type in all cases: in vivo
[1] = test system: Zinnia elegans; conditions: for Control effect on Zinnia elegans: post-emergence, dose 4 g a.i./hm^2, visual, 0 = no control effect, 100% = weeds completely killed
Excerpt: (§1) The test method of the herbicidal activity of the compound in the present invention is as follows:
(§2) Quantitative grass weed (Echinochloa crusgalli and Setaria viridis) and broad-leaved weed (Abutilon theophrasti and Zinnia elegans) seeds were sown in paper cups having a diameter of 7 cm and containing nutrient soil, after sowing, the seeds were covered with 1 cm of soil, the soil was pressed and watered, and then the seeds were cultivated in a greenhouse according to a conventional method. The grass weeds grew to 2-3 leaf stages, the broad-leaved weeds grew to 2-4 leaf stages, stem and leaves were sprayed. Before emergence, the soil was sprayed within 24 hours after sowing. According to the design dose of the test, spray treatment was carried out on a track-type crop sprayer (designed and produced by British Engineer Research Ltd.) (spray pressure is 1.95 kg/cm^2, spray volume is 500 L/hm^2 and track speed is 1.48 km/h). The test was repeated for three times. The test material was treated and then placed in an operation hall. The medicinal liquid was naturally dried in the shade, and then was placed in a greenhouse and managed according to the conventional method. The response of the weeds to the test compound was observed and recorded. After treatment, the control effects of the test compound on the weeds were visually inspected regularly.
(§3) The grading standards of the control effects: 0 represents no control effect and 100% represents that the weeds are completely killed or greatly controlled.

[2] = test system: Abutilon theophrasti; conditions: for Control effect on Abutilon theophrasti: post-emergence, dose 4 g a.i./hm^2, visual, 0 = no control effect, 100% = weeds completely killed
Excerpt: as §1, §2, §3

[3] = test system: Setaria viridis; conditions: for Control effect on Setaria viridis: post-emergence, visual, 0 = no control effect, 100% = weeds completely killed
Excerpt: as §1, §2, §3

[4] = test system: Echinochloa crusgalli; conditions: for Control effect on Echinochloa crusgalli: post-emergence, visual, 0 = no control effect, 100% = weeds completely killed
Excerpt: as §1, §2, §3

[5] = post-emergence treatment, dose 4-8 g a.i./hm^2

Structure (SMILES) | Herbicidal activity on Zinnia elegans (in words) [1, 5] | Control effect on Zinnia elegans [1] | Herbicidal activity on Abutilon theophrasti (in words) [2, 5] | Control effect on Abutilon theophrasti [2] | Herbicidal activity on Setaria viridi (in words) [3, 5] | Control effect on Setaria viridis ([3]; dose 4 g a.i./hm^2) | Control effect on Setaria viridis ([3]; dose 8 g a.i./hm^2) | Herbicidal activity on Echinochloa crusgalli (in words) [4, 5] | Control effect on Echinochloa crusgalli ([4]; dose 4 g a.i./hm^2) | Control effect on Echinochloa crusgalli ([4]; dose 8 g a.i./hm^2)
CCOC(=O)[C@]1(C)CC(c2cc(-n3c(=O)cc(C(F)(F)F)n(C)c3=O)c(F)cc2Cl)=NO1 [Compound 3] | high herbicidal activity | 100% | high herbicidal activity | 90% | high herbicidal activity | 75% | 85% | high herbicidal activity | 90% | 98%
CCOC(=O)C1(C)CC(c2cc(-n3c(=O)cc(C(F)(F)F)n(C)c3=O)c(F)cc2Cl)=NO1 (stereo not shown) [CN105753853 Compound 6, reference compound] | – | 90% | – | 60% | – | 25% | 55% | – | 45% | 50%
